Test results reported in US11725027B2, “Hypersensitive response elicitor-derived peptides and use thereof” (priority 2016, dated 2023).
Read-outs that look alike come from different tables or passages of the source. Marks after values point to notes of the source that are not given here. No end group written: not given here.

How the values were obtained:
[1] = 50° C.; for stability in buffer solutions: 50 mM buffers
Protocol: Briefly, the stability and resistance to chemical degradation of peptides can be assessed as follows using peptide samples having an initial purity of at least about 80%, at least about 82%, at least about 84%, at least about 86%, at least about 88%, at least about 90%, at least about 92%, at least about 94%, at least about 96%, or at least about 98%. For water stability, the peptide is dissolved directly in de-ionized water. For chemical degradation tests, the peptide is dissolved in an aqueous solution containing 50 mM pH buffer and 0.25% Proxel GXL. Exemplary pH buffers include, without limitation: (i) Citrate pH 5.6; (ii) MES pH 6.0; (iii) MOPS pH 6.5; (iv) imidazole pH 7.5; (v) Citrate pH 7.2; (vi) EDDS, pH 7.3; (vii) EDTA pH 8.0; (viii) sodium phosphate pH 8.0; or (ix) TES pH 8.0. Peptides are first dissolved in the aqueous solution at a concentration of 0.5 mg/ml. The samples are incubated at 50° C. to allow for accelerated degradation. An initial sample of the peptide is removed, diluted 10× with water, and analyzed by reverse-phase HPLC. Briefly, 20 μl of the sample is injected into the solvent flow of an HPLC instrument and analyzed on a C18 HPLC column (YMC ProPack C18, YMC, Japan, or C18 Stablebond, Agilent Technologies, USA) using either a triethylamine phosphate in water/acetonitrile gradient or a 0.1% TFA in water/0.1% TFA in acetonitrile gradient to separate different peptide species. Eluting peptides are monitored by UV absorbance at 218 nm and quantified based on the area under the peak. The area under the peak for the initial peptide sample is treated as the standard for relative quantification in subsequent runs. At regular intervals (e.g., 1, 3, 7, 10, and 14 days), each peptide sample is surveyed and analyzed by HPLC as described above.
(§1) Stability against chemical degradation was assessed in various pH buffers by creating 0.2% AI solutions of pure, chemically synthesized peptide in deionized water, 0.25% weight to volume of Proxel® GXL (biocide), and 50 millimolar (mM) of nine buffers (separately) as follows: Citrate, pH 5.6, MES pH 6.0, MOPS pH 6.5, Citrate pH 7.2, EDDS pH 7.3, imidazole pH 7.5, EDTA pH 8, Phosphate pH 8, and TES pH 8.

[2] = Stability of material bulked with maltodextrin and buffer at room temperature; assay type: physicochemical; conditions: bulked with maltodextrin and phosphate buffer (pH 8.0) or citrate buffer (pH 7.2), 48 hours
Protocol: Samples of material P5, P5-21, and P5-25 bulked with maltodextrin and either phosphate buffer (pH 8.0) or citrate buffer (pH 7.2) were tested for stability at room temperature for 48 hours.

[3] = Solution (formulation) stability at 50° C. (HPLC); assay type: physicochemical; conditions: 0.25% Proxel GXL
Protocol: Peptides solutions were analyzed by HPLC for % loss of the peptide signal over time during incubation at 50° C., relative to the time 0 sample. Peptides were analyzed until the remaining peptide concentration decreased to 80% of original (20% degradation).

[4] = system: Nicotiana tabacum cultivar xanthi plants; test: Hypersensitive Response (HR) induction in tobacco leaves; assay type: in vivo; parameters: key to HR: Plants are considered HR-positive (“HR+”) if they exhibit wide-spread macroscopic cell death visible to the naked eye, accompanied by wilting and browning of the affected tissue within 48 hours; Plants are considered HR-negative (“HR−”) if they exhibit no discernible wilting or tissue death observable by naked eye; conditions: tobacco leaf infused with 500, 250, 125, 62.5, 31.25 μg/ml peptide solutions, scored over 48 hours
Text: A property of a peptide to elicit a hypersensitive response, or not, upon infiltration or application of the peptide to plant tissues can be measured by applying the peptide in dry powder form or in solution form to a plant, particularly though not exclusively a plant leaf.
The minimal eliciting sequence derived from was developed based on the sequence of the hrex gene from Xanthomonas campestris pv. pelargonii. A number of truncated and mutated sequences were synthesized and tested for Hypersensitive Response induction (results in Table 4). HR in tobacco was tested as described in Wei, Science 257:85-88 (1992), which is hereby incorporated by reference in its entirety. Briefly, peptides were dissolved at a concentration of 500 μg/ml in aqueous solution. Four serial dilutions were performed with an equal volume of water, yielding peptide samples at 500, 250, 125, 62.5, 31.25 μg/ml peptide solutions. Nicotiana tabacum cultivar xanthi plants were used at 5-7 weeks old (preflowering). Leaves were lightly punctured with a toothpick in a middle leaf panel. Peptide solutions were then infused via needle-less syringe into the wound, filling the panel. Each peptide sample was infused into a leaf of 2 different plants. The leaves were observed and scored over the next 48 hours for withering and browning, lesions typical of programmed cell death. These studies had […] main goals: (1) determine the minimal sequence sufficient for HR elicitation (2) increase the solution stability of the peptides; (3) make disruptive mutations to verify the residues which are most important for HR elicitation; (4) make conservative mutations to identify the degree of specificity for particular amino acids.

corn = test: Drought resistance in corn (greenhouse, spray); assay type: in vivo; conditions: corn under drought
Protocol: (§2) The effectiveness of peptide treatment in reducing drought stress was assessed in corn and soy. 3.5 inch pots were filled with Sunshine #1 soil (SunGro Horticulture), fertilized with a 20-10-20 mixture. The soil was soaked and drained overnight. Seeds (either corn or soy, manually inspected to ensure uniform seed size) were planted at a depth of 1 inch for germination. Plants were grown in a greenhouse under 16 hour light days at >70° F. and 8 hour dark nights at >65° F. Prior to drought conditions, the plants were well-watered.
When the plants reached the V1 stage, plants were culled to achieve a uniform height (abnormally large and small plants were removed). Plants were then randomly assigned to control (spray without peptide) or treatment (spray with peptide) groups and heights were measured. Peptide was made up in a solution of 0.2 ug/ml or 2 ug/ml in distilled water+0.01% Tween-20, and applied as a fine mist from a spray bottle until the solution drips from the leaves. After the peptide solutions were dried, the plants were again randomized in a randomized complete block design. Drought stress was initiated after the peptide treatment. This was caused by maintaining the water level at 25-50% of the maximum capacity for water (capacity was decided as the weight of the pot filled with saturated soil minus the weight of the filled pot prior to adding water).
(§3) The drought test phase ended after 2-3 weeks. At that time, the plant height was again measured and the growth rate was calculated as the difference between this and the previously-recorded height. The above-ground part portions of the plants were harvested and weighed. The above-ground portion was also dried in an oven at 70° C. for 72 hours and a dry weight was obtained. All calculations were compared with matched untreated control plants.

soy = test: Drought resistance in soy (greenhouse, spray); assay type: in vivo; conditions: soy under cyclic drought, 2.0 ug/ml
Protocol: as §2, with “in” for “in corn and”, “Seeds (soy,” for “Seeds (either corn or soy,”, “of half” for “of 1”
When the plants reached the growth stage when first trifoliate expanded, plants were culled to achieve a uniform height (abnormally large and small plants were removed). Plants were then randomly assigned to control (spray without peptide) or treatment (spray with peptide) groups and heights were measured. Peptide was made up in a solution of 0.2 ug/ml or 2 ug/ml in distilled water+0.04% Tween-20, and applied as a fine mist from a spray bottle until the solution drips from the leaves. After the peptide solutions were dried, the plants were again randomized in a randomized complete block design. Cyclic drought stress was initiated after the peptide treatment. Plants were subjected to at least three drought cycles of drought stress (3-5 days of withholding water and 1 day irrigated with saturating amount of water) before harvesting.
as §3, with “weighed to obtain fresh weight.” for “weighed.”, “to obtain” for “and a”, “weight.” for “weight was obtained.”

[5] = system: tobacco mosaic virus (TMV); test: Induction of resistance to tobacco mosaic virus in tobacco; assay type: in vivo; conditions: % decline in TMV lesions vs UTC, spray 20 ug/ml; for Effectiveness Covered (%): covered leaf (systemic response); for Effectiveness Uncovered (%): uncovered leaf (local response)
Protocol: Peptides were tested for the induction of resistance to tobacco mosaic virus (TMV) in tobacco. Briefly, three tobacco plants at 6-8 weeks old were selected per group (samples and controls). The bottom-most leaf of the plant was covered and the plant was sprayed with a solution of water (untreated control—UTC), peptide, or Proact (positive control). The spray was applied until the leaves were fully wetted, indicated by liquid dripping from the leaves. The plants were then allowed to dry and the leaf covering was removed.
Three days post-treatment, the previously-covered leaf and a leaf on the opposite side of the plant were then lightly dusted with diatomaceous earth and 20 ul of a 1.7 ug/ml solution of purified tobacco mosaic virus was applied. The TMV solution was then spread across the leaf surface by lightly rubbing solution and the diatomaceous earth across the surface of the leaves. Two minutes after inoculation, the diatomaceous earth was rinsed off the leaves with water. 3 days after TMV inoculation, the leaves were scored based on the number of TMV lesions observed. The leaf was also scored for signs of the hypersensitive response, including yellowing and wilting of the affected leaves.
Effectiveness described in Table 6 refers to the % decline in TMV lesions on treated vs UTC plants. A reduction of TMV on covered leaves indicates a systemic immune response in the plant while reduction on uncovered leaves indicates a local response. Asterisks indicate that the P-value derived from a T-test was <0.05.

soybean cyst nematodes = test: Seed coating with peptides compared with chemical nematode agents in soy; assay type: in vivo, soy (Sheyenne variety)
Protocol: Additional experiments will be performed to examine the effectiveness of peptide treatment in suppressing the growth of soybean cyst nematodes using one or more of the other peptides in Tables 1 and 2, including, without limitation, P5-21 and P5-25. See Example 8 below.
The effectiveness of peptides was tested in soy (Sheyenne variety) and compared with current anti-nematode chemicals. Briefly, soy seeds were commercially coated with peptide at rates of 10, 30, or 90 ug peptide per seed or with chemical nematicides Avicta Complete, Clariva Complete, Poncho/Votivo, or Velum total. 3 soy seeds were planted in a mixture of topsoil and sand (pasteurized) in a 10 cm diameter pot and were inoculated with 1500 eggs per pot at planting. 10 replicate pots were used per experimental condition. After plants emerged from the soil, the plants were thinned to one plant per pot. Plants were harvested about 45 days after planting. The following measures were taken: (1) Fresh shoot and root weights; (2) Root condition graded 0-10 for the presence of disease; (3) Nematode cysts per plant; (4) Nematode eggs per plant; and optionally (5) Male nematodes. The following values were calculated: eggs per gram of root, cysts per gram of root, and eggs per cyst.

[6] = 50 mM buffer solutions pH 5.6-8.0, 0.25% Proxel GXL
Protocol: as §1

[7] = EDTA buffer pH 8.0, 50 mM, after 14 days

Sequence: SEEQLELLLAFIAAALQQEE [Peptide P5-21]
- peptide remaining [1, 7]: around 80%
- peptide remaining (stability) ([1]; all buffers pH>7.0 except EDTA, 50 mM, after 14 days): > 90%
- degradation (more than 5% loss) [2]: No significant degradation
- Time before 20% degradation ([3]; 50 mM citrate pH 7.2, 20% IPA, 0.09% AI): 41 days

Sequence: NQGISEKQQLDLLLAFIAAALQQ [Peptide P5-76]
- HR [4]: Weak+
- Dry Weight Increase (%) (corn; 0.2 ug/ml): 5.33* %
- Fresh Weight Increase (%) (corn; 0.2 ug/ml): 2.00%

Sequence: SEEQLDQLLLAFIAAALQEE [Peptide P5-27]
- HR [4]: -
- Time before 20% degradation ([3]; 50 mM imidazole pH 7.5, 50% IPA, 0.09% AI): 50 days
- Dry Weight Increase (%) (soy): 2.04%
- Fresh Weight Increase (%) (soy): 4.07* %

Sequence: SEEQLDQLLLMFIMMMLQQEE [Peptide P5-46]
- HR [4]: +
- Effectiveness Covered (%) [5]: 74* %
- Effectiveness Uncovered (%) [5]: 85* %
- Dry Weight Increase (%) (corn; 2.0 ug/ml): 3.71%
- Fresh Weight Increase (%) (corn; 2.0 ug/ml): 9.05** %

Sequence: LDLLLAFIAAALEEEEEE [Peptide P5-9]
- stability in buffer solutions [1]: better stability compared with P5
- peptide remaining ([1]; citrate pH 7.2, 50 mM, after 14 days): above 80%
- peptide remaining ([1]; phosphate pH 8.0, 50 mM, after 14 days): above 80%

Sequence: SAGSEQQEDLLLMFIMMMLQQ [Peptide P5-35]
- HR [4]: Weak+
- Dry Weight Increase (%) (corn; 2.0 ug/ml): −6.57* %
- Fresh Weight Increase (%) (corn; 2.0 ug/ml): −6.05* %

Sequence: SEEEEQLDQLLLAFIAAALQQ [Peptide P5-25]
- HR [4]: -
- degradation (more than 5% loss) [2]: No significant degradation
- Time before 20% degradation ([3]; 50 mM citrate pH 7.2, 0.09% AI): 53 days
- Effectiveness Covered (%) [5]: 93* %
- Effectiveness Uncovered (%) [5]: 91* %
- drought resistance, experimental results (corn): not statistically significant
- reduction in cysts per gram root (soybean cyst nematodes; 10 ug peptide per seed): 92%
- reduction in eggs per gram root (soybean cyst nematodes; 10 ug peptide per seed): 94%
- reduction in cysts per gram root (soybean cyst nematodes; 30 ug peptide per seed): 82%
- reduction in eggs per gram root (soybean cyst nematodes; 30 ug peptide per seed): 85%
- reduction in cysts per gram root (soybean cyst nematodes; 90 ug peptide per seed): 91%
- reduction in eggs per gram root (soybean cyst nematodes; 90 ug peptide per seed): 93%

Sequence: SAGSEQQLDLLLMFIMMMLQQ [Peptide P5]
- stability in buffer solutions [1]: generally poor stability
- peptide remaining [1, 7]: about 40%
- degradation (more than 5% loss) [2]: No significant degradation
- Time before 20% degradation ([3]; 50 mM phosphate pH 8.0, 30% IPA, 5 mM DTPA, 0.09% AI): 21 days

Sequence: QLELLLAFIAAALQQ [Peptide P5-5]
- solubility [6]: Precipitation
